Where two headings read alike, the source gives them in different places.
Key:
Experiment in all cases: biochemical
Set-up in all cases: species or system HEK293; PDSP competitive radioligand binding, membranes of transfected HEK293 cells, filtration, Ki by Cheng-Prusoff
5-HT3 = biological target: T1, 5-HT3 (Homo sapiens, UniProt P46098)
T1 construct: gene HTR3A
Experimental: (§1) Competitive radioligand binding assays were performed at the NIMH Psychoactive Drug Screening Program (PDSP) using membranes from transiently transfected HEK293 cells in 96-well format as described. Complete, target-specific protocols are available at the PDSP website (https://pdsp.unc.edu/pdspweb/?site=assays). Primary screenings were run at a single test concentration (10 µM) in quadruplicate. […] Secondary assays were conducted in triplicate using 12-point serial dilutions (0, 0.1, 0.3, 1, 3, 10, 30, 100, 300 nM; 1, 3, 10 µM). Assays were performed in a final volume of 125 µL per well in binding buffer, as detailed in the NIMH PDSP protocols (e.g., standard binding buffer: 50 mM Tris-HCl, pH 7.4, 10 mM MgCl2, 0.1 mM EDTA). Radioligand concentrations were chosen near the target-specific Kd. Total and nonspecific binding were defined in the absence and presence, respectively, of 10 µM reference ligand specific for each receptor. After 90 min incubation at room temperature, reactions were terminated by vacuum filtration onto 0.3% polyethyleneimine-pretreated UniFilter-96 GF/C Microplates using a FilterMate harvester, washed three times with ice-cold buffer (50 mM Tris HCl, pH 7.4), dried, treated with MicroScint-O [compound left out] scintillation cocktails, and counted on a MicroBeta counter. Equilibrium inhibition constants (Ki) were calculated from fitted IC50 values using the Cheng–Prusoff equation [14] with the assay-specific radioligand concentration and Kd. TABLE 1. […] Results represented mean ± SEM from a minimum of 3 independent assays, each in triplicate. ND=not determined.

D5 = biological target: T2, D5 (Homo sapiens, UniProt P21918)
T2 construct: gene DRD5
Experimental: as §1

DOR = biological target: T3, DOR (Homo sapiens, UniProt P41143)
T3 construct: gene OPRD1
Experimental: as §1

DRD2 = DRD2 (Homo sapiens, UniProt P14416)
Experimental: as §1

DRD4 = biological target: T4, DRD4 (Homo sapiens, UniProt P21917)
T4 sequence (P21917 1-419): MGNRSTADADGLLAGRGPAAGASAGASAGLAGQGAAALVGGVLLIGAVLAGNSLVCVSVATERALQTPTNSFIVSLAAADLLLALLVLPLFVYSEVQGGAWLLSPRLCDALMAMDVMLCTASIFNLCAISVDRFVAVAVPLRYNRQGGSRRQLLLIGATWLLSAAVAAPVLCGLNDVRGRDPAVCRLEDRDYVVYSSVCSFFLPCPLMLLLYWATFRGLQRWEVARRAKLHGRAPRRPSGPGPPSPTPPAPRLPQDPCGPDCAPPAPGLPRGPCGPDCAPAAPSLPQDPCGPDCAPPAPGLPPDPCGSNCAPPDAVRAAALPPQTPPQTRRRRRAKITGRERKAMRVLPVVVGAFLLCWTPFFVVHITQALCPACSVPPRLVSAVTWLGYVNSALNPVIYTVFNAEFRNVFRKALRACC
Experimental: as §1

MOR = biological target: T5, MOR (Homo sapiens, UniProt P35372)
T5 construct: gene OPRM1
Experimental: as §1

SERT = biological target: T6, SERT (Homo sapiens, UniProt P31645)
T6 construct: gene SLC6A4
Experimental: as §1

α1B = biological target: T7, α1B (Homo sapiens, UniProt P35368)
T7 construct: gene ADRA1B
Experimental: as §1

α1D = biological target: T8, α1D (Homo sapiens, UniProt P25100)
T8 construct: gene ADRA1D
Experimental: as §1

β1 = biological target: T9, β1 (Homo sapiens, UniProt P08588)
T9 construct: gene ADRB1
Experimental: as §1

[1] = read-out: N-desmethyl-xanomeline (PDSP) pKi (converted)

T9 sequence (P08588 whole entry): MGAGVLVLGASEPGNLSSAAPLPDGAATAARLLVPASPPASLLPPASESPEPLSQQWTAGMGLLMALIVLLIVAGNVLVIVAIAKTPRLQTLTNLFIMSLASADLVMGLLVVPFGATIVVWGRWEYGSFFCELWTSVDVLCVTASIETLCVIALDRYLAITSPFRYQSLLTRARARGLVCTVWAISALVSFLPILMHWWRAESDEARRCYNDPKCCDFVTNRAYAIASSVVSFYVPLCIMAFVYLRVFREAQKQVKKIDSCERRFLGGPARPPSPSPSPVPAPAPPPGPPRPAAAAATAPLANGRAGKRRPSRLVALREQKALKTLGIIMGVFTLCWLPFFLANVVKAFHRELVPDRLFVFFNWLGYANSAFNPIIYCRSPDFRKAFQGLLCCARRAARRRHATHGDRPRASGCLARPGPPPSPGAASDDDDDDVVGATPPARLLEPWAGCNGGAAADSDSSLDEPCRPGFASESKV
T8 sequence (P25100 whole entry): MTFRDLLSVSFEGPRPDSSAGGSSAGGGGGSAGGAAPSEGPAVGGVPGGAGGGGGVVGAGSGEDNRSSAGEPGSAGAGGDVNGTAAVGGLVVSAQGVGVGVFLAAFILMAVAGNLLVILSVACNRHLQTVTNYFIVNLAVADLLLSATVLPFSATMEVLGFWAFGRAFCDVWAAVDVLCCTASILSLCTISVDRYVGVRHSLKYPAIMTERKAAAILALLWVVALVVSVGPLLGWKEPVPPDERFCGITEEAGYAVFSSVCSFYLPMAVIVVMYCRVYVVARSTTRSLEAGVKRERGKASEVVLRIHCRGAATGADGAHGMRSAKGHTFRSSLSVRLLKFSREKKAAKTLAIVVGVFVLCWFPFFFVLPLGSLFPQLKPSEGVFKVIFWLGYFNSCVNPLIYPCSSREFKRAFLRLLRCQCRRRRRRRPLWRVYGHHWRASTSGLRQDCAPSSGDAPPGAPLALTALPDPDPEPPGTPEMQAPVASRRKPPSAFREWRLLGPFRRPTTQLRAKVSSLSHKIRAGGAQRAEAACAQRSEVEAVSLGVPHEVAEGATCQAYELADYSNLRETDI
T3 sequence (P41143 whole entry): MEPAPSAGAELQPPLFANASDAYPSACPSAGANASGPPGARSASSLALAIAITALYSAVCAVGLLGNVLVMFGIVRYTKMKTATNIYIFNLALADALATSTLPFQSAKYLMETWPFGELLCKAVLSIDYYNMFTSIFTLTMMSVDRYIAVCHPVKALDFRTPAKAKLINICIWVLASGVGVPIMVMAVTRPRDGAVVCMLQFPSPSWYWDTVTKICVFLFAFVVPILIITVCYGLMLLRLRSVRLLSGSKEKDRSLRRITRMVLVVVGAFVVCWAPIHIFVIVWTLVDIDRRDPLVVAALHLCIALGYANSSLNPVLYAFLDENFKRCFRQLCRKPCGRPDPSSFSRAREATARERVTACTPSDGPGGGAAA
T2 sequence (P21918 whole entry): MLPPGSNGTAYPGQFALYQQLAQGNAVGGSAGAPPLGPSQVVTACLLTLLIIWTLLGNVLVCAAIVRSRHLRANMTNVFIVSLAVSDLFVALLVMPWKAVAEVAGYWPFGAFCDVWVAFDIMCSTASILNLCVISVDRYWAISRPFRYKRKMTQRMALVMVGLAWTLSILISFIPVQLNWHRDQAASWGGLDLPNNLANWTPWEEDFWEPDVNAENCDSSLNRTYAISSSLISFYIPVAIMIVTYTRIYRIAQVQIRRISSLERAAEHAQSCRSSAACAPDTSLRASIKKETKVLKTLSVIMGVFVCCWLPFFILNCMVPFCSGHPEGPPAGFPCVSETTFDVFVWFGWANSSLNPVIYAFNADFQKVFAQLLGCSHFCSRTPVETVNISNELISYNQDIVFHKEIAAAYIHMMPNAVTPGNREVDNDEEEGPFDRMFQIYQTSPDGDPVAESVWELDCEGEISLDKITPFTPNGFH
T7 sequence (P35368 whole entry): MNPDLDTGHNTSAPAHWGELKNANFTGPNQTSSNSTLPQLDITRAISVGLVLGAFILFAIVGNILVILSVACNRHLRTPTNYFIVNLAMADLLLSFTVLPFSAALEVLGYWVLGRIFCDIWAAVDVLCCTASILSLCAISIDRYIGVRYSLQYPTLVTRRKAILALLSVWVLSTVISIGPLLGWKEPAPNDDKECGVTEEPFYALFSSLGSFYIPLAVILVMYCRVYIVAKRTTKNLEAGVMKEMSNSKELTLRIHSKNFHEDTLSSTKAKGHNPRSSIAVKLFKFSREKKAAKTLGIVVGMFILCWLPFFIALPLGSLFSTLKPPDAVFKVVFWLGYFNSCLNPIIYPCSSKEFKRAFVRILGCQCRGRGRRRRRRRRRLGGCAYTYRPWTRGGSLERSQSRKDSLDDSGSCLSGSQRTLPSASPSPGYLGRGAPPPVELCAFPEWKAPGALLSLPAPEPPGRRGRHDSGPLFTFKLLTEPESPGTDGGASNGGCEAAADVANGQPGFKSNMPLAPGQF
DRD2, sequence (P14416 whole entry): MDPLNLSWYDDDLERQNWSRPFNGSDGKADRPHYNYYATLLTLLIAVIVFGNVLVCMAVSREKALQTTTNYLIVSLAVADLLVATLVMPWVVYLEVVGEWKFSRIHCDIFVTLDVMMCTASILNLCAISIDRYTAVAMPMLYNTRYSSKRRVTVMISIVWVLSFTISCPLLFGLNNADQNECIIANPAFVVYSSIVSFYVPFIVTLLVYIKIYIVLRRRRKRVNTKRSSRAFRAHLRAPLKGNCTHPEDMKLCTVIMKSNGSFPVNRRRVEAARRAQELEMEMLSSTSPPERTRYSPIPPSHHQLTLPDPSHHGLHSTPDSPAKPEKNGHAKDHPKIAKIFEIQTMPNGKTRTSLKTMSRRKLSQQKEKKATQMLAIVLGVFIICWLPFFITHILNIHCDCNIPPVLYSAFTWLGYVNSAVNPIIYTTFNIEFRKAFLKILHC
T6 sequence (P31645 whole entry): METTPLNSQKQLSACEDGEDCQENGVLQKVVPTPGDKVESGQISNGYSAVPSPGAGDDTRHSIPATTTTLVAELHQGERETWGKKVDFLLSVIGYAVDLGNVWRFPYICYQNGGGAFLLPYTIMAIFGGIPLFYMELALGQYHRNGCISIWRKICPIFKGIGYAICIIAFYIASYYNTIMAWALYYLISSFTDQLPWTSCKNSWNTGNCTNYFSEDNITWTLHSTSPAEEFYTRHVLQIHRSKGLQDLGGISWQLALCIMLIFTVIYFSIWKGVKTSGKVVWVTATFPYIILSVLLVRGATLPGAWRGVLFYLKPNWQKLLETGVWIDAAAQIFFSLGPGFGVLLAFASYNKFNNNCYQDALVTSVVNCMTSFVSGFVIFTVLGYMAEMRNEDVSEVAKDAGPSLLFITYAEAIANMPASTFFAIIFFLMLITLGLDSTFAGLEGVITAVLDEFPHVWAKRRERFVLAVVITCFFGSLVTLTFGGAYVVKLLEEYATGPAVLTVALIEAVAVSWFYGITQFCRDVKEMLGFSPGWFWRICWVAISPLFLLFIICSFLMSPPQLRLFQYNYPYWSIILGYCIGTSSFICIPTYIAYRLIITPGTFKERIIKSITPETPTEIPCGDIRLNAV
T5 sequence (P35372 whole entry): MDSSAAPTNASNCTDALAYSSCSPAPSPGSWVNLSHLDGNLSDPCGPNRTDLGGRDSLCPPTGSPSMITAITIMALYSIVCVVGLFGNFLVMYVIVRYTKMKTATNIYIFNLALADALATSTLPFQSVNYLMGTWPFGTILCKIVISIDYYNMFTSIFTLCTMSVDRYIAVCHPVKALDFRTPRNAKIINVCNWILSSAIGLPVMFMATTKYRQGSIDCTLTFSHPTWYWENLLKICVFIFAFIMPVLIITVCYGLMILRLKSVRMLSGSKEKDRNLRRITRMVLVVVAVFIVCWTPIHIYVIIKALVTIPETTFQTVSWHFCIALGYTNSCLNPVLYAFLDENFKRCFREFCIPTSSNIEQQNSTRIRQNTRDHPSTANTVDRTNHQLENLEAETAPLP
T1 sequence (P46098 whole entry): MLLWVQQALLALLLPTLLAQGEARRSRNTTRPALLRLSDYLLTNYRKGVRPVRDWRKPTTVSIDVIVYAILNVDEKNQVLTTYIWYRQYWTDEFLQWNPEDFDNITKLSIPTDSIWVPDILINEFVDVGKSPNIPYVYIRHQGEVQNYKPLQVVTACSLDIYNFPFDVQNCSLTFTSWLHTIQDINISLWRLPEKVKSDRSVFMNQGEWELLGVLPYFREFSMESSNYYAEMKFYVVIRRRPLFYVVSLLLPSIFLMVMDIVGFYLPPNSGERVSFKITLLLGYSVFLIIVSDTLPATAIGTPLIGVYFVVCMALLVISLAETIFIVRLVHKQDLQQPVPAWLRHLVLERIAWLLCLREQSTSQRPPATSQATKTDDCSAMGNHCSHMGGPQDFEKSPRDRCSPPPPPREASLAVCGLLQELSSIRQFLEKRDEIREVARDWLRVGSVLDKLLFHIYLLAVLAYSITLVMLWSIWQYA

**Q.** `CCCCCCOc1nsnc1C1=CCCNC1` [N-desmethylxanomeline] was tested. Which Ki (5-HT3; [1]) did it give?
**A.** Its Ki is 2.4 µM.

**Q.** And the Ki (D5; [1])?
**A.** The Ki was > 10 µM.

**Q.** What about the Ki (DOR; [1]) of the same compound?
**A.** The Ki was > 10 µM.

**Q.** And the Ki (DRD2; [1])?
**A.** Its Ki is 6.61 µM.

**Q.** What about the Ki (DRD4; [1]) of the same compound?
**A.** The Ki was > 10 µM.

**Q.** And the Ki (MOR; [1])?
**A.** Its Ki is 7.94 µM.

**Q.** What about the Ki (SERT; [1]) of the same compound?
**A.** Its Ki is 1.62 µM.

**Q.** And the Ki (α1B; [1])?
**A.** The Ki was 7.24 µM.

**Q.** What about the Ki (α1D; [1]) of the same compound?
**A.** The Ki was 3.31 µM.

**Q.** And the Ki (β1; [1])?
**A.** The Ki was 8.71 µM.

**Q.** For `CCCCCCOc1nsnc1C1=CCCN(C)C1` [Xanomeline], which Ki (5-HT3) is on record?
**A.** Its Ki is > 10 µM.

**Q.** And the Ki (D5)?
**A.** The Ki was > 10 µM.

**Q.** What about the Ki (DOR) of the same compound?
**A.** The Ki was > 10 µM.

**Q.** What about the Ki (DRD2) of the same compound?
**A.** The Ki was > 10 µM.

**Q.** And the Ki (DRD4)?
**A.** The Ki was 2 µM.

**Q.** And the Ki (MOR)?
**A.** Its Ki is > 10 µM.

**Q.** And the Ki (SERT)?
**A.** Its Ki is > 10 µM.

**Q.** What about the Ki (α1B) of the same compound?
**A.** The Ki was > 10 µM.

**Q.** And the Ki (α1D)?
**A.** The Ki was > 10 µM.

**Q.** What about the Ki (β1) of the same compound?
**A.** Its Ki is > 10 µM.

Reference: paper doi:10.1101/2025.11.20.689572v1 (biorxiv, 2025)
